In ChEMBL document CHEMBL1136202, “Imidazo[1,2-a]pyridines: a potent and selective class of cyclin-dependent kinase inhibitors identified through structure-based hybridisation” (Bioorg Med Chem Lett, 2003) one finds IC50 data, which are given here for nine compounds.

The target of test [1] is Cyclin-dependent kinase 2 (Homo sapiens, UniProt P24941). As to the kind of experiment: Inhibition of Cyclin-dependent kinase 2.
Test [2] addresses Cyclin-dependent kinase 4 (Homo sapiens, UniProt P11802). As to the kind of experiment: Inhibition of Cyclin-dependent kinase 4.

Cyclin-dependent kinase 4, sequence (P11802 whole entry): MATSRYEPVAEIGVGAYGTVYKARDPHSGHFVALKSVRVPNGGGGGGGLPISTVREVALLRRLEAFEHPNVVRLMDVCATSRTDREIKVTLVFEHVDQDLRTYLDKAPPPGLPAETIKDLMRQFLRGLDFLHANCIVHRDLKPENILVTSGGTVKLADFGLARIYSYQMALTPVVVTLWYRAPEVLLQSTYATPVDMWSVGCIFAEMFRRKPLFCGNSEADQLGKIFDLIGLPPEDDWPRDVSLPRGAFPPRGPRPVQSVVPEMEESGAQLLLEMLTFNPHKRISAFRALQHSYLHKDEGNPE

Take `CN(C)CC(O)COc1ccc(Nc2nccc(Nc3ccccc3)n2)cc1` (stereo unspecified): the concentration for half-maximal inhibition (IC50) in test [1] is 32 µM.

For the compound `Cc1nc2ccccn2c1-c1ccnc(Nc2ccccc2)n1`, the IC50 in test [1] is 0.036 µM; in test [2], 3.6 µM.

As to `Cc1nc2ccccn2c1-c1ccnc(Nc2ccc(S(N)(=O)=O)cc2)n1`, the IC50 is < 0.003 µM in test [1] and 2.5 µM in test [2].

The compound `Cc1nc2ccccn2c1-c1ccnc(Nc2ccc(OCC(O)CN(C)C)cc2)n1` (stereo unspecified) came in with an IC50 in test [2] of 0.15 µM.

For the compound `Cc1ccc(F)c(Nc2ccnc(Nc3ccc(S(N)(=O)=O)cc3)n2)c1`, the concentration for half-maximal inhibition (IC50) stood at 0.006 µM in test [1] and 2.7 µM in test [2].

Take `CC(=O)Nc1nccc(-c2c(C)nc3ccccn23)n1`: the concentration for half-maximal inhibition (IC50) is 2.9 µM in test [1] and 8.9 µM in test [2].

Regarding `Cc1nc2ccccn2c1-c1ccnc(NC(=O)C(F)(F)F)n1`, the IC50 stood at 95 µM in test [1] and 40 µM in test [2].

Consider `Cc1nc2ccccn2c1-c1ccnc(NC(=O)Nc2ccccc2)n1`, for which the IC50 in test [1] and in test [2] was > 10 µM in each case.

As for `Cc1nc2ccccn2c1-c1ccnc(N)n1`, the IC50 in test [1] came to 4 µM; in test [2] it was 8 µM.

By IC50 is commonly meant the concentration at which inhibition is half-maximal. A lower IC50 goes with greater potency in that assay.
